{"source": "patent US20030083469A1", "about": "“Allosteric control of nuclear hormone receptors” (The Salk Institute for Biological Studies, priority 1995, published 2003)", "key": {"RAR-RXR heterodimers": {"molecular_target": "T1, RAR-RXR heterodimers (Homo sapiens, UniProt P10276+P19793)", "T1 construct": "transient transfection analysis of full-length Nurrl and/or RXR; expressed in transfected cells; host or cells: CV-1", "T1 sequence (P10276 1-462)": "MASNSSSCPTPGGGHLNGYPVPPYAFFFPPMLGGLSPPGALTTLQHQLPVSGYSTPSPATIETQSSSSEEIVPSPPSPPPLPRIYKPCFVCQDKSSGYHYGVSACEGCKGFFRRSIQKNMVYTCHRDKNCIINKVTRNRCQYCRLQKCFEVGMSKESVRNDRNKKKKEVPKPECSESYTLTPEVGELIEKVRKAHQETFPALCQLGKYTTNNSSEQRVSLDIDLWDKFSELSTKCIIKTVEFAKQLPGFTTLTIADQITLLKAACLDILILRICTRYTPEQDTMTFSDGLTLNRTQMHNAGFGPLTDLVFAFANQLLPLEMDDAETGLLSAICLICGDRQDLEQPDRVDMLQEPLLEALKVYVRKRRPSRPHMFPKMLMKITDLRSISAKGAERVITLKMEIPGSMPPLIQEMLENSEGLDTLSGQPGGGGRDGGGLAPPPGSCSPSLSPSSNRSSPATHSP", "T1 sequence (P19793 1-462)": "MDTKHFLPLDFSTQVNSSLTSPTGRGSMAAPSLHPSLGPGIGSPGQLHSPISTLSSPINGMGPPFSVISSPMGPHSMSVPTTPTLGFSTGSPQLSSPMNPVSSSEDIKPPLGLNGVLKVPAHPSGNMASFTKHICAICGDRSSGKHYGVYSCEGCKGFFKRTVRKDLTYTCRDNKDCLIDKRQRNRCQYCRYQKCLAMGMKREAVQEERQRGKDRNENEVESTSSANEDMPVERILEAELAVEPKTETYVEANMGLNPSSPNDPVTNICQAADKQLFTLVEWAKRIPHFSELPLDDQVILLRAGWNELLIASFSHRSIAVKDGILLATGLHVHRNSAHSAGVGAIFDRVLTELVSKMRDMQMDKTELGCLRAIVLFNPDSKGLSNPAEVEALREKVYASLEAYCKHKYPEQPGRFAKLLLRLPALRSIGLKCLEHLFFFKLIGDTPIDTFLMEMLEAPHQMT", "assay": "Transient transfection analysis of RAR-RXR heterodimers (TK-LUC reporter, CV-1 cells)", "format": "cell-based", "procedure": "One day prior to transfection, cells were plated to 50-80% confluence using phenol-red free DMEM-FBS. Cells were transfected by lipofection using N-{2-(2,3)-dioleoyloxy)propyl-N,N,N-trimethyl ammonium methyl sulfate} according to the manufacturer's instructions (DOTAP, Boehringer Mannheim).\nIn the right panel of FIG. 2, cells were transfected with HRE×1 TK-LUC (300 ng/10^5 cells), CMX-hRARα (50 ng/10^5 cells) CMX-hRXRα (50 ng/10^5 cells) and CMX-βgal (500 ng/10^5 cells) . […] Normalized luciferase activity was determined and plotted as fold-activation relative to untreated cells."}, "RXR LBD": {"molecular_target": "T2, RXR LBD (Homo sapiens, UniProt P19793)", "T2 construct": "or the human RXRα LBD (Glu 203 -Thr 462); expressed in transfected cells; host or cells: CV-1", "T2 sequence (P19793 203-462)": "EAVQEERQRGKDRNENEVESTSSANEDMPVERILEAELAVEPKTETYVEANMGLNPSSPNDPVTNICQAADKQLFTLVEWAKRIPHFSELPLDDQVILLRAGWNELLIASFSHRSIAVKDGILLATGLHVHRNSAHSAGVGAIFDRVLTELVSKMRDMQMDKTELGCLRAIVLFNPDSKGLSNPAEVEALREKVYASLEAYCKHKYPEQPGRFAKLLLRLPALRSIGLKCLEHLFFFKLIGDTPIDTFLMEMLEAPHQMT", "assay": "Transient transfection, RXR LBD expressed alone (UASG x4 TK-LUC)", "format": "cell-based", "details": "100 nM LG69", "procedure": "(§1) CV-1 cells were grown in Dulbecco's Modified Eagle's medium supplemented with 10% resin-charcoal stripped (Samuels et al., Endocrinology 105:80-85 (1979)) fetal bovine serum, 50 U/ml penicillin G and 50 μg/ml streptomycin sulfate (DMEM-FBS) at 37° C. in 5% CO2. One day prior to transfection, cells were plated to 50-80% confluence using phenol-red free DMEM-FBS. Cells were transfected by lipofection using N-{2-(2,3)-dioleoyloxy)propyl-N,N,N-trimethyl ammonium methyl sulfate} according to the manufacturer's instructions (DOTAP, Boehringer Mannheim). […] Cells were harvested and assayed for luciferase and β-galactosidase activity. All points were performed in triplicate in each experiment and varied by less than 10%. Each experiment was repeated three or more times with similar results.\n(§2) Since RXR serves as a silent partner in the T3R and RAR pathways, it was next investigated whether RXR could serve as an active component in other complexes. To search for such complexes, the LBD of a number of nuclear receptors were fused to the GAL4 DBD, and tested to determine whether the RXR LBD could confer LG69 responsiveness upon these GAL-LBD chimeras. […] Normalized luciferase activity was determined and plotted as fold-activation relative to untreated cells."}, "[1]": {"molecular_target": "T3, GAL chimera containing the LBD of VDR + RXR LBD (Homo sapiens, UniProt P19793)", "T3 construct": "or the human RXRα LBD (Glu 203 -Thr 462); expressed in transfected cells; host or cells: CV-1", "T3 sequence (P19793 203-462)": "T2 sequence (P19793 203-462)", "assay": "Transient transfection of GAL-VDR LBD chimera with RXR LBD", "format": "cell-based", "details": "100 nM LG69", "procedure": "as §1, §2"}, "Nurrl+RXR LBD": {"molecular_target": "T4, Nurrl+RXR LBD (Homo sapiens, UniProt P19793)", "T4 construct": "or the human RXRα LBD (Glu 203 -Thr 462); expressed in transfected cells; host or cells: CV-1", "T4 sequence (Q06219 whole entry partner, one chain of several, the tested form may be a part)": "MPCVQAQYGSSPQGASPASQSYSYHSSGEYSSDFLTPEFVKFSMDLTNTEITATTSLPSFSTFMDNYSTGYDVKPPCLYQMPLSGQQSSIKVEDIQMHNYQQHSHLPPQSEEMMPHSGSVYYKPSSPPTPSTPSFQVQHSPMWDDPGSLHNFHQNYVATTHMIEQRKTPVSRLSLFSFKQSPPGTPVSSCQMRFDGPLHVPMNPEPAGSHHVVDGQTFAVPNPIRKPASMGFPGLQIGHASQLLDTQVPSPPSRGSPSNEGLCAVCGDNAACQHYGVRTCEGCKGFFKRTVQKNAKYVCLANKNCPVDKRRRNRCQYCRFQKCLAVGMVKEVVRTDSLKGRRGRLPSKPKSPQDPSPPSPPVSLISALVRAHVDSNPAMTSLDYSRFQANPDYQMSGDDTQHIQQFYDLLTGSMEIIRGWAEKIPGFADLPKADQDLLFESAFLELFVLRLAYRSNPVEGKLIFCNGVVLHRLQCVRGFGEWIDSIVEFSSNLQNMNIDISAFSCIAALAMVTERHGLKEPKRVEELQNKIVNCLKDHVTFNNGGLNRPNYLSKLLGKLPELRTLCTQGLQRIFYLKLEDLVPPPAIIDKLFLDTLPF", "assay": "Transient transfection of Nurrl with RXR LBD on NBRE x3 reporter", "format": "cell-based, mouse Nurrl, human RXRα", "details": "NBRE×3; 100 nM LG69", "procedure": "as §1\nThis prompted an investigation of the question of whether the RXR DBD is required for activation through the Nurrl pathway. Thus, CV-1 cells were transfected with TK-LUC reporters (300 ng/10^5 cells), CMX-βgal (500 ng/10^5 cells) and the indicated CMX-receptor construct (20 ng/10^5 cells; see FIG. 7D) with or without CMX-RXR-LBD (100 ng/10^5 cells) . […] Normalized luciferase activity was determined and plotted as percent of maximal fold-activation where 100% is defined as the fold activation by T3R, RAR, VDR, the RXR LBD, or Nurrl+RXR LBD. […]"}}, "data": [{"smiles": "CC=C(c1ccc(C(=O)O)cc1)c1cc2c(cc1C)C(C)(C)CCC2(C)C", "note": "[LG69, 4-{1-(3,5,5,8,8-pentamethyl-5,6,7,8-tetrahydro-2-napthalenyl)-1-propenyl}benzoic acid]", "values": [{"measurement": "transcriptional activity with Am580+LG69 over that seen with AM580 alone", "setting": "RAR-RXR heterodimers; 50 nM Am580+100 nM LG69, full-length receptors", "result": "increased transcriptional activity"}, {"measurement": "responsiveness of transfected cells to ligand (luciferase fold-activation)", "setting": "RAR-RXR heterodimers; CV-1 cells transfected with RARα and RXRα, 50 nM Am580 or 100 nM LG69", "result": "unresponsive"}, {"measurement": "LG69 responsiveness", "setting": "RXR LBD", "result": "not seen"}, {"measurement": "LG69 inducibility", "setting": "[1]", "result": "not observed"}, {"measurement": "LG69 responsiveness conferred upon Nurrl by the RXR LBD", "setting": "Nurrl+RXR LBD", "result": "strong"}]}]}
